In patent US5708063A, “Photochromic compound” (Tokuyama Corporation, priority 1993, dated 1998):

Columns and labels:
Format in all cases: physicochemical
[1] = Fatigue life of fulgide/fulgimide and chromene compound in polymerized methacrylate plate (Example 15); settings: for T1/2 of fulgide or fulgimide compound: 0.05 part
Protocol: (§1) […] The mixed solution was injected into a mold which was made of a glass plate and a gasket formed of an ethylene-vinyl acetate copolymer, and was heated to a temperature of 35° to 90° C. in an air oven over a period of 20 hours for polymerization. After the polymerization was over, the polymer was withdrawn from the glass plate of the mold.
(§2) The resulting polymerized plate was irradiated with sunlight for 10 minutes. On this occasion, a color tone of said plate was visually observed. In this polymerized plate, the fulgide or fulgimide compound and the chromene compound were measured for fatigue life in the same manner as in Example 9. Further, a color tone of the polymerized plate was visually observed in T1/2 (hrs.) of the fulgide or fulgimide compound.

[2] = Fatigue life of fulgide/fulgimide and chromene compound in polymerized plate with ultraviolet light stabilizer (Example 16)
[3] = Photochromic PMMA cast film: initial coloration density, maximum absorption wavelength and fatigue life in xenon fadeometer (Example 9); settings: PMMA cast film 0.1 mm; for λmax / Initial color density: xenon light; for Initial color density / T1/2: no stabilizer; for T1/2: time for color density to fall to half of initial value, xenon fadeometer;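 on Initial color density: initial color density is an absorbance value so the % unit is wrong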
Description: The thickness of the cast film was adjusted to 0.1 mm.
(§3) T1/2 is defined as the time required for the color density to decrease to half of its initial value when the film is exposed to the fadeometer.

[4] = Visual color tone of polymerized plate under sunlight (Example 15); settings: 0.05 part
Protocol: as §1, §2

[5] = Durability of poly(allyl diglycol carbonate) lens impregnated with the compound in silicone oil, as in Example 9 (Example 10); parameters: Initial color density: unit not given here; settings: silicone oil impregnation; for Initial color density: 1.0×10^-4 mole/g; for T1/2: xenon fadeometer
Protocol: as §3
The solution was impregnated in the surface of a lens composed of poly(allyl diglycol carbonate) at 200° C. for 1 hour. The concentration of the solution was adjusted to 1.0×10^-4 mole/g.

[6] = Fatigue life of photochromic PMMA cast film with ultraviolet stabilizer, xenon fadeometer (Examples 11-14); settings: PMMA film, UV stabilizer Cyasorb UV1084, 0.2 part
Protocol: One hundred parts by weight of benzene, 10 parts by weight of poly(methyl methacrylate), 0.2 part […] The solution was cast on a slide glass (11.2×3.7 cm) to form a cast film having a thickness of 0.1 mm.
The fatigue life of photochromic film was measured as in Example 9 by a xenon long-life fadeometer (FAL-25AX-HC made by Suga Testing Instrument Co., Ltd.).
Example 11 was repeated except that the fulgimide compound obtained in Example 2 was used instead of fulgimide compound used in Example 11.
Example 11 was repeated except that the fulgimide or fulgide compounds shown in Table 28 were used instead of the fulgimide compounds in Example 11, and Cyasorb UV1084 was used as the ultraviolet stabilizer.

[7] = with chromenes 1/2 (0.015/0.015 part)

## 7'-methoxyspiro(bicyclo[3.3.1]nonane-9,2'-(2H)benzo(f)-chromene) [Chromene compound 2]
[1]; 0.03 part, with fulgide/fulgimide 2 (0.05 part)
  T1/2 of chromene compound: 210 h
[1]; 0.03 part, with fulgide/fulgimide 21 (0.05 part)
  T1/2 of chromene compound: 170 h
[1]; 0.03 part, with fulgide/fulgimide 36 (0.05 part)
  T1/2 of chromene compound: 190 h
[1]; 0.03 part, with fulgide/fulgimide 45 (0.05 part)
  T1/2 of chromene compound: 175 h
[1]; 0.03 part, with fulgide/fulgimide 54 (0.05 part)
  T1/2 of chromene compound: 165 h
[1]; 0.04 part chromene 2, with fulgide/fulgimide 2/48 (0.025/0.025 part)
  T1/2 of chromene compound: 190 h
[2]; 0.04 part, fulgimide 2 (0.05), Tiniuvin 765 (0.1)
  T1/2 of chromene compound: 14.2 days
[2]; 0.04 part, fulgimide 2 (0.05), Tinuvin 765 (0.2)
  T1/2 of chromene compound: 14.6 days
[2]; 0.04 part, fulgimide 2 (0.05), Tinuvin 765 (0.5)
  T1/2 of chromene compound: 16.7 days
[2]; 0.04 part, fulgimide 2 (0.05), Tinuvin 765 (1.0)
  T1/2 of chromene compound: 20 days
[2]; 0.04 part, fulgimide 2 (0.05), Tinuvin 765 (2.0)
  T1/2 of chromene compound: 20.8 days
[2]; 0.04 part, fulgimide 2 (0.05), Tinuvin 765 (10.0)
  T1/2 of chromene compound: 21.7 days
[2]; 0.04 part, fulgimide 2 (0.05), UV Chek AM105 (0.7)
  T1/2 of chromene compound: 18.3 days
[2]; 0.05 part, fulgimide 2 (0.05), LA-63 (0.5)
  T1/2 of chromene compound: 20 days
[2]; 0.05 part, fulgimide 48 (0.05), Cyasorb UV 1084 (0.6)
  T1/2 of chromene compound: 17.9 days

## CC(=O)CN1C(=O)C2=C(C3CC3C)c3cc(-c4ccccc4)sc3C3(C4CCC3CC4)C2C1=O (centres unmarked) [(10)]
[1]; with chromene 3 (0.08 part)
  T1/2 of fulgide or fulgimide compound: 190 h
[3]
  λmax: 610 nm
  Initial color density: 0.83%
  T1/2: 80 h
[4]; with chromene 3 (0.08 part)
  Color tone in T0: green
  Color tone in T1/2: bluish gray
[5]
  λmax: 615 nm
  Initial color density: 0.82
  T1/2: 85 h

## COC(=O)C(C)N1C(=O)C2=C(C3CC3(C)C)c3ccoc3C3(C4CCC3(Cl)CC4)C2C1=O (centres unmarked) [(12)]
[6]
  T1/2: 13.3 days
[1]; with chromene 4 (0.08 part)
  T1/2 of fulgide or fulgimide compound: 184 h
[3]
  λmax: 581 nm
  Initial color density: 0.78%
  T1/2: 77 h
[4]; with chromene 4 (0.08 part)
  Color tone in T0: gray
  Color tone in T1/2: gray

## CCCCC1CC1C1=C2C(=O)N(C(C)(C)C#N)C(=O)C2C2(c3c(OC)cc(OC)cc31)C1CCC2(CCCC)CC1 (centres unmarked) [(17)]
[6]
  T1/2: 9.58 days
[1]; with chromene 5 (0.03 part)
  T1/2 of fulgide or fulgimide compound: 146 h
[3]
  λmax: 568 nm
  Initial color density: 0.58%
  T1/2: 58 h
[4]; with chromene 5 (0.03 part)
  Color tone in T0: gray
  Color tone in T1/2: gray

## CCCC1CC1C1=C2C(=O)N(C(C)C(C)=O)C(=O)C2C2(c3oc(OC)cc31)C1CCCC2CCC1 (centres unmarked) [(30)]
[1]; with chromene 1 (0.03 part)
  T1/2 of fulgide or fulgimide compound: 186 h
[3]
  λmax: 569 nm
  Initial color density: 0.73%
  T1/2: 78 h
[4]; with chromene 1 (0.03 part)
  Color tone in T0: gray
  Color tone in T1/2: gray
[5]
  λmax: 571 nm
  Initial color density: 0.68
  T1/2: 85 h

## CCOC1CC1C1=C2C(=O)N(C(C#N)CC)C(=O)C2C2(c3sc(OC)c(C)c31)C1CC3CC(C1)CC2C3 (centres unmarked) [(36)]
[1]; with chromene 2 (0.03 part)
  T1/2 of fulgide or fulgimide compound: 206 h
[3]
  λmax: 576 nm
  T1/2: 88 h
[4]; with chromene 2 (0.03 part)
  Color tone in T0: gray
  Color tone in T1/2: gray
[5]
  λmax: 582 nm
  Initial color density: 0.77
  T1/2: 95 h

## CCC(C(=O)C[N+](=O)[O-])N1C(=O)C2=C(C3CC3)c3cc(OC)cc(OC)c3C3(C4CC5CC(C4)CC3C5)C2C1=O (centres unmarked) [(45)]
[6]
  T1/2: 11 days
[1]; with chromene 2 (0.03 part)
  T1/2 of fulgide or fulgimide compound: 160 h
[3]
  λmax: 579 nm
  Initial color density: 0.54%
  T1/2: 65 h
[4]; with chromene 2 (0.03 part)
  Color tone in T0: gray
  Color tone in T1/2: light gray

## CC1CC1C1=C2C(=O)N(CCCCCc3cccc4ccccc34)C(=O)C2C2(c3sc4c(c31)CCCC4)C1CC3CC(C1)CC2C3 (centres unmarked) [(48)]
[1]; with chromene 1 (0.04 part)
  T1/2 of fulgide or fulgimide compound: 154 h
[1]; [7]
  T1/2 of fulgide or fulgimide compound: 154 h
[3]
  λmax: 588 nm
  Initial color density: 0.75%
  T1/2: 62 h
[4]; with chromene 1 (0.04 part)
  Color tone in T0: gray
  Color tone in T1/2: gray
[4]; [7]
  Color tone in T0: gray
  Color tone in T1/2: gray
[2]; 0.05 part, chromene 1 (0.04), Spinuvex A-36 (0.6)
  T1/2 of fulgide or fulgimide compound: 17.9 days
[2]; 0.05 part, chromene 2 (0.05), Cyasorb UV 1084 (0.6)
  T1/2 of fulgide or fulgimide compound: 17.5 days
[2]; 0.05 part, chromene 3 (0.1), Tinuvin 765 (0.7)
  T1/2 of fulgide or fulgimide compound: 18.8 days
[2]; 0.05 part, chromene 4 (0.1), UV Check AM101 (0.4)
  T1/2 of fulgide or fulgimide compound: 18.3 days
[2]; 0.05 part, chromene 5 (0.05), Tinuvin 622 (0.7)
  T1/2 of fulgide or fulgimide compound: 18.8 days
[5]
  λmax: 590 nm
  Initial color density: 0.67
  T1/2: 65 h

## O=C1OC(=O)C2C1=C(C1CC1)c1c(sc3c1CCCC3)C21C2CCCC1CCC2 (centres unmarked) [(54)]
[1]; with chromene 2 (0.03 part)
  T1/2 of fulgide or fulgimide compound: 134 h
[3]
  λmax: 568 nm
  Initial color density: 1.09%
  T1/2: 52 h
[4]; with chromene 2 (0.03 part)
  Color tone in T0: gray
  Color tone in T1/2: brown
[5]
  λmax: 573 nm
  Initial color density: 0.99
  T1/2: 54 h

## C1=CC2(CC3CCC2C3)Oc2c1ccc1ccccc21 (centres unmarked) [Chromene compound 1, Spiro(norbornane-2,2'-(2H)benzo(h)-chromene)]
[1]; 0.03 part, with fulgide/fulgimide 8 (0.05 part)
  T1/2 of chromene compound: 170 h
[1]; 0.03 part, with fulgide/fulgimide 30 (0.05 part)
  T1/2 of chromene compound: 170 h
[1]; 0.04 part chromene 1, with fulgide/fulgimide 2/48 (0.025/0.025 part)
  T1/2 of chromene compound: 190 h
[1]; 0.04 part, with fulgide/fulgimide 48 (0.05 part)
  T1/2 of chromene compound: 148 h
[2]; 0.03 part, fulgimide 2 (0.05), Irgastab 2002 (0.5)
  T1/2 of chromene compound: 20 days
[2]; 0.04 part, fulgimide 48 (0.05), Spinuvex A-36 (0.6)
  T1/2 of chromene compound: 17.9 days

## CC1=CC2(Oc3ccc4ccccc4c31)C1CCCC2CCC1 (centres unmarked) [Chromene compound 3, 4'-methylspiro[bicyclo[3.3.1]nonane-9,2'-[2H]benzo[f]chromene]]
[1]; 0.08 part, with fulgide/fulgimide 10 (0.05 part)
  T1/2 of chromene compound: 150 h
[1]; 0.08 part, with fulgide/fulgimide 44 (0.05 part)
  T1/2 of chromene compound: 160 h
[2]; 0.01 part, fulgimide 2 (0.05), Cyasorb 944 (0.5)
  T1/2 of chromene compound: 16.7 days
[2]; 0.1 part, fulgimide 48 (0.05), Tinuvin 765 (0.7)
  T1/2 of chromene compound: 17.5 days

## CC1=Cc2c(ccc3ccccc23)OC12CC1CCC2C1 (centres unmarked) [Chromene compound 4, 3'-methylspiro[norbornane-2,2'-[2H]benzo-[f]chromene]]
[1]; 0.04 part, with fulgide/fulgimide 24 (0.05 part)
  T1/2 of chromene compound: 152 h
[1]; 0.08 part, with fulgide/fulgimide 12 (0.05 part)
  T1/2 of chromene compound: 180 h
[2]; 0.01 part, fulgimide 2 (0.05), LS-2626 (0.4)
  T1/2 of chromene compound: 20 days
[2]; 0.1 part, fulgimide 48 (0.05), UV Check AM101 (0.4)
  T1/2 of chromene compound: 17.9 days

## CCCCCCCCOc1cccc2c3c(ccc12)C=CC(C)(C)O3 [Chromene compound 5, 2,2-dimethyl-7-octoxy[2H]benzo[h]chromene]
[1]; 0.03 part, with fulgide/fulgimide 17 (0.05 part)
  T1/2 of chromene compound: 120 h
[1]; 0.04 part, with fulgide/fulgimide 15 (0.05 part)
  T1/2 of chromene compound: 192 h
[1]; 0.07 part, with fulgide/fulgimide 46 (0.05 part)
  T1/2 of chromene compound: 155 h
[2]; 0.05 part, fulgimide 2 (0.05), Mark LA-87 (0.5)
  T1/2 of chromene compound: 18.8 days
[2]; 0.05 part, fulgimide 48 (0.05), Tinuvin 622 (0.7)
  T1/2 of chromene compound: 17.9 days
